Experimental data reported in patent US20200276181A1, “THIENOISOQUINOLINES AND THEIR DERIVATIVES FOR TARGETING TUBULIN, CH-TOG, AURORA A KINASE, TPX2, CDK5RAP2 AND/OR ASPM” (VALORBEC, SEC, priority 2017, published 2020).

Key:
Type in all cases: cell-based
[1] = tested on: HCT 116 cells; test: Spindle phenotypes, paclitaxel and C75 combination; settings: 7 hours, at 100 and 200 nM
Experimental: FIG. 3A) is a line graph showing cytotoxicity of HeLa cells after treatment with varying concentrations of C75+/−a subthreshold dose of paclitaxel (Taxol™; 3 nM). The IC50 is shown by the dotted line. Bars show standard deviation. FIG. 3B) is a line graph showing the percentage of mitotic HeLa or HFF1 cells treated with a range of paclitaxel concentrations+/−C75 as indicated. The bars indicate standard deviation. FIG. 3C) is a series of bar graphs showing the proportion of HCT 116 cells with bipolar aligned (grey), bipolar misaligned (dark grey), multipolar/fragmented (light grey, top portion of each bar) or monopolar (black) spindles 7 hours after treatment with control (DMSO), varying concentrations of paclitaxel or C75, or both as indicated (n=691; N=3). The bars show standard deviation. The combination treatments were compared to paclitaxel and C75 on their own by calculating ratios varying from the predicted ratio, and found to synergize at 100 and 200 nM. FIG. 3D) is bar graph showing the average distance between centrosome fragments in HCT116 cells after treatments as shown. While centrosome fragments moved closer together with increased concentrations of paclitaxel, they moved further apart with increased concentrations of C75 (n=105; N=3). […]

[2] = tested on: HCT116 cells with lower levels of endogenous MCAK (MCAK RNAi); test: Spindle phenotypes with MCAK RNAi; settings: 300 nM C75
Experimental: FIG. 9A) is a series of images of HCT116 cells with lower levels of endogenous MCAK (MCAK RNAi), stained for DAPI (DNA) and tubulin (microtubules), and treated with 300 nM C75 or control. FIG. 9B) is a bar graph showing the proportion of spindle phenotypes in HCT116 cells treated as in 9A). The multipolar spindle phenotypes caused by C75 are suppressed by MCAK RNAi.
It was observed that the proportion of multipolar spindles caused by C75 are decreased after MCAK depletion.

[3] = tested on: HCT116 cells; test: Mitotic arrest after one population doubling time; settings: HCT116, most responsive
Excerpt: For each condition, 20,000 cells were counted per replicate (N=3). Line graphs (right) were made to better illustrate the relative changes in the cell cycle phases for the different treatments. Bars show standard deviation. The asterisks indicate the first statistically significant change in the G0/G1 and G2/M populations determined by a two-way ANOVA with a post-hoc Tukey's multiple comparisons test using 95% confidence intervals. FIG. 2B) is a line graph showing the percentage of HCT116 (p53−/−) cells, A549 cells, HeLa cells and H1299 cells in mitosis after treatment with various concentrations of C75 for one population doubling time. All of the cell lines show an increase in the proportion of mitotic cells after treatment with 200 nM C75. The bars indicate standard deviation. […]
C75 was also tested for efficacy in different cancer cell lines. […] To further assess the role of C75 in disrupting spindles, HeLa cells were treated with 300 nM C75 for 4 hours and the spindle phenotypes were analyzed in more detail (FIG. 2E). […] To assess the affect of C75 on centrosomes, HeLa cells were treated with C75 or nocodazole (a drug that causes microtubule depolymerization as a control) for a short period of time (5 minutes), then the drugs were removed and the cells were analyzed for spindle phenotypes (schematic in FIG. 2G). […]

SMILES: COc1ccc(S(=O)(=O)N2Cc3ccccc3-c3sc(Br)cc32)cc1 [Compound C75]
- combination with paclitaxel vs each alone, spindle phenotypes [1]: synergize
- suppression of multipolar spindle phenotypes by MCAK RNAi [2]: suppressed
- concentration at which mitotic cells increase [3]: 100 nM
